Experimental data taken from patent US6531462B2, “Medicament for treating obesity and improving lipid metabolism” (priority 1997, dated 2003).
Entries after “also recorded” stand apart in the source; their conditions may differ. Marks after values point to notes of the source that are not given here.

How the values were obtained:
[1] = Example 1: general conditions and autopsical finding; assay type: in vivo, CDF1 male mice; settings: 0.5% in feed, 2 weeks
Description: (§1) 5-Sitosten-3-one was prepared according to the method of Parish (Parish, E. J., et al., Synthetic Communication, 22, pp.2839-2847, 1992) by using β-sitosterol (Tokyo Chemical Industry Co., Ltd.) as a starting material and used in the experiments. The content ratio of 24-ethyl and 24-methyl compounds in the synthesized product was 6.5:3.5. As experimental animals, six CDF1 male mice (5-week old, Charles River Japan Inc.) were used in each experimental group. The animals were fed in aluminum cages for mice, and allowed to feed and water ad libitum. The animals were fed for 2 weeks under feeding conditions at a temperature of 24±1° C. and a relative humidity of 55±5%, where light and darkness were controlled to change every 12 hours, and each cage and floor mat (white flakes) were exchanged twice a week.
(§2) Modified AIN (Oriental Yeast Co.) was used as basic feed and mixed with 0.5% 5-sitosten-3-one to prepare test feeds. A feed used as a positive control was prepared by adding 0.5% of 4-cholesten-3-one (Japanese Patent Unexamined Publication No. Hei 5-170651/1993) to the basic feed. Non-treated mice as a control were fed solely with the basic feed. The basic feed was composed of 22.8% crude protein, 54.1% carbohydrates, 6.0% lipids, 4.9% fibers, 2.9% ash, and 8.7% water, and its calorie was 1,523 kJ. The feed was stored at 4° C. after preparation, and a fresh feed was supplied every day.
(§3) The animals were weighed at given intervals of time, and the average values and standard errors of the experimental groups were determined. In addition, feed consumptions were measured at given intervals of time and daily averages per mouse were determined. The animals were observed every day. After the end of the feeding, the animals were anesthetized to death with carbon dioxide gas, and bloods were collected from the vena cava to obtain serums. The animals were autopsied, and the brains, lungs, hearts, livers, spleens, kidneys, testis, adrenals and intraperitoneal fat were examined by the naked eye and weighed. As to serum lipid, neutral fats were measured by using a clinical test kit based on the enzyme method (Triglyceride-E Test, Wako Pure Chemicals Industries Co., Ltd.), and total cholesterol and cholestanol were measured by the method of Kasama (T. Kasama, et al., J. Chromatogr., 400, 241, 1987) with modifications, where the amount of benzoyl chloride was increased by 10 times, the reaction time was doubled, and the measurement was performed by using a high performance liquid chromatography system. Significant differences were determined by t-test for body weights and serum lipids on the basis of the non-treated control mice.

[2] = Example 1: body weight, body fat and feed intake of mice fed feed supplemented with 0.5% test compound; assay type: in vivo, CDF1 male mice; settings: ratio relative to the non-treated control group, CDF1 mice
Description: as §1, §2, §3

[3] = Example 1: serum lipids and serum metabolites of mice fed feed supplemented with 0.5% test compound; assay type: in vivo; settings: for Serum cholesterol / Serum neutral fats: ratio relative to the non-treated control group
Description: as §1, §2, §3

[4] = Example 4: body weight and body fat of mice fed 0.5% test compound for 14 days; assay type: in vivo, CDF1 male mice; settings: 0.5% in feed; for Intraperitoneal fat: mean (n=6) ± standard error; for Decrease of body fat: versus non-treated mice
Description: (§4) 5-Campesten-3-one was prepared from campesterol (>97%, Tama Biochemical Industry, Ltd.). 4-Sitosten-3,6-dione was prepared from β-sitosterol (>65%, Tokyo Chemical Industry Co., Ltd.) and obtained as a mixture of 24-ethyl compound and 24-methyl compound (2:1). 5-Stigmasten-3-one was prepared from stigmasterol (>94%, Tokyo Chemical Industry, Co., Ltd.). As experimental animals, six CDF1 male mice (5-week old, Charles River Japan Inc.) were used in each experimental group. Modified AIN (Oriental Yeast Co.) was used as basic feed and mixed with 0.5% of each test compound to prepare test feeds. The animals were allowed to feed with the test food ad libitum for 14 days. Measurements of body weights and observations of general conditions of the animals were carried out twice a week, and the animals were subjected to autopsy and their bloods were collected. Serum lipid analysis was conducted by using a clinical test kit based on the enzymatic method (Wako Pure Chemicals Industries Co., Ltd.). Significances of the resulting values were examined by the one-way analysis of variance with pairwise comparison (ANOVA) according to the Bonferroni method. Other conditions were the same as those described in Example 1.

[5] = Example 4: serum lipid concentration of mice fed 0.5% test compound for 14 days; assay type: in vivo, CDF1 male mice; settings: 0.5% in feed; for Total cholesterol / Triglyceride: mean (n=6) ± standard error
Description: as §4

[6] = Example 2: body weight, feed intake, feed efficiency and intraperitoneal fat of mice fed 0.5% test compound; assay type: in vivo, CDF1 male mice; settings: 0.5% in feed; for Feed efficiency (body weight gain/feed intake): 14 days; for Intraperitoneal fat: mean (n=6) ± standard error; for Body weight gain: total for 14 days; for Decrease of intraperitoneal fat: versus control
Text: (§5) As 24-alkylcholesten-3-ones, (1) 4-sitosten-3-one, (2) 6α-hydroxy-4-sitosten-3-one, and (3) 6-hydroxy-4-sitosten-3-one (α:β=2.6:1) were synthesized by using β-sitosterol (Tokyo Chemical Industries Co., Ltd.). The content ratio of 24-ethyl and 24-methyl compounds in the synthesized product was 6.5:3.5. As experimental animals, six CDF1 male mice (5-week old, Charles River Japan Inc.) were used in each experimental group. A purified feed (Modified AIN, Oriental Yeast Co.) was used as a basic feed and mixed with 0.5% test compounds to prepare test feeds. The animals were allowed to feed and water ad libitum. The animals were weighed and observed to examine general conditions twice a week. The animals were subjected to autopsy after the end of the feeding, and their bloods were collected. Lipid concentrations in the separated serums were measured by using a clinical test kit based on the enzyme method (Wako Pure Chemicals Industries Co., Ltd.). Significances of the resulting experimental values were examined by the variance analysis. The other experimental conditions were the same as in Example 1.

[7] = Example 2: serum (plasma) lipid concentrations of mice fed 0.5% test compound; assay type: in vivo, CDF1 male mice; settings: 0.5% in feed; for Free fatty acid / HDL-cholesterol / Phospholipid / Total cholesterol / Triglyceride: mean (n=6) ± standard error
Text: as §5

[8] = metabolite of the test compound detected in serum, CDF1 mice
[9] = male, CDF1, mouse, in vivo, 2 weeks

In the case of `CC(C)CCC[C@@H](C)[C@H]1CC[C@H]2[C@@H]3CCC4=CC(=O)CC[C@]4(C)[C@H]3CC[C@]12C` [4-Cholesten-3-one, 4-cholesten-3-one], the Spleens at autopsy [1] is reported as “enlargements”, the Body weight gain [2] is reported as 72^a % and the Intraperitoneal fat [2] is reported as 74%. For the same compound, the “Neutral fats (serum), mean ± standard error” value ([3]; 0.5% in feed, 2 weeks, n=6) was 197.7 ± 28.1 mg/dL, the “Total cholesterol (serum), mean ± standard error” value ([3]; 0.5% in feed, 2 weeks, n=6) was 99.2 ± 5.8 mg/dL and the Serum metabolite [3, 8] was “Cholestanol”. The Serum metabolite ([3]; metabolite of the test compound detected in serum, CDF1 mice, listed as 4-cholesten-3-one) was “cholestanol”, the Serum cholesterol ([3]; CDF1 mice) was 62% and the Serum neutral fats ([3]; CDF1 mice) was 54%.

With `CC(C)CCC[C@@H](C)[C@H]1CC[C@H]2[C@@H]3CC(=O)C4=CC(=O)CC[C@]4(C)[C@H]3CC[C@]12C` [4-Cholestene-3,6-dione] the Body weight gain [2] was −62%, the Intraperitoneal fat [2] was 23% and the Serum metabolite [3, 9] was 0. It also gave a Serum cholesterol ([3]; CDF1 mice) of 60% and a Serum neutral fats ([3]; CDF1 mice) of 36%.

In the case of `CC[C@H](CC[C@@H](C)[C@H]1CC[C@H]2[C@@H]3CC(=O)C4=CC(=O)CC[C@]4(C)[C@H]3CC[C@]12C)C(C)C` [4-Sitosten-3,6-dione], the “Effect on the increase of body weight (FIG. 6)” value [4] is reported as “Significant inhibitory effects”, the Intraperitoneal fat [4] is reported as 472.7 ± 37.7 mg and the “Decrease of body fat” value [4] is reported as roughly 40%. The “Decrease of serum total cholesterol concentration” value [5] was roughly 18%, the “Decrease of serum triglyceride concentration” value [5] was roughly 66% and the Total cholesterol [5] was 156.3 ± 6.4 mg/dL. It also gave a Triglyceride [5] of 85.8 ± 9.2 mg/dL.

In the case of `CC[C@H](CC[C@@H](C)[C@H]1CC[C@H]2[C@@H]3CCC4=CC(=O)CC[C@]4(C)[C@H]3CC[C@]12C)C(C)C` [4-Sitosten-3-one, 4-sitosten-3-one], the “Feed efficiency (change)” value [6] is reported as “only slight changes”, the “Suppression of body weight (FIG. 3)” value [6] is reported as “no significant suppression” and the “Feed efficiency (body weight gain/feed intake)” value [6] is reported as 0.087. The Intraperitoneal fat [6] was 841.5 ± 69.0 mg, the Body weight gain [6] was 3.71 g/mouse and the “Decrease of intraperitoneal fat” value [6] was “not signilficant”. The Free fatty acid [7] was 0.92 ± 0.03 mEq/dl, the HDL-cholesterol [7] was 42.4 ± 6.36 mg/dL and the Phospholipid [7] was 271.0 ± 9.5 mg/dL. For the same compound, the Total cholesterol [7] was 151.4 ± 5.7 mg/dL and the Triglyceride [7] was 130.9 ± 4.9 mg/dL.

With `CC(C)CCC[C@@H](C)[C@H]1CC[C@H]2[C@@H]3CC[C@@H]4CC(=O)CC[C@]4(C)[C@H]3CC[C@]12C` [5 β-Cholestan-3-one, 5β-cholestan-3-one] the Body weight gain [2] was 51%, the Intraperitoneal fat [2] was 71% and the Serum metabolite [3, 8] was “Cholestanol”. The Serum metabolite ([3]; metabolite of the test compound detected in serum, CDF1 mice, listed as 5β-cholestan-3-one) was “cholestanol or coprostanol”, the Serum cholesterol ([3]; CDF1 mice) was 75% and the Serum neutral fats ([3]; CDF1 mice) was 70%.

In the case of `CC(C)[C@H](C)CC[C@@H](C)[C@H]1CC[C@H]2[C@@H]3CC=C4CC(=O)CC[C@]4(C)[C@H]3CC[C@]12C` [5-Campesten-3-one, 5-campesten-3-one (24-methylcholest-5-en-3-one)], the “Effect on the increase of body weight (FIG. 6)” value [4] is reported as “Significant inhibitory effects; also recorded: remarkably suppressed”, the Intraperitoneal fat [4] is reported as 86.4 ± 19.9 mg and the “Decrease of body fat” value [4] is reported as “about 90%”. The “Decrease of serum total cholesterol concentration” value [5] was “about 34%”, the “Decrease of serum triglyceride concentration” value [5] was “about 45%” and the Total cholesterol [5] was 125.8 ± 4.0 mg/dL. The Triglyceride [5] was 138.9 ± 18.7 mg/dL.

`CC(C)CCC[C@@H](C)[C@H]1CC[C@H]2[C@@H]3CC=C4CC(=O)CC[C@]4(C)[C@H]3CC[C@]12C` [5-Cholesten-3-one] gave a Body weight gain [2] of −16%, an Intraperitoneal fat [2] of 37% and a Serum metabolite [3, 9] of 0. It also gave a Serum cholesterol ([3]; CDF1 mice) of 68% and a Serum neutral fats ([3]; CDF1 mice) of 30%.

In the case of `CC[C@H](CC[C@@H](C)[C@H]1CC[C@H]2[C@@H]3CC=C4CC(=O)CC[C@]4(C)[C@H]3CC[C@]12C)C(C)C` [5-Stigmasten-3-one], the Intraperitoneal fat [4] is reported as 745.7 ± 46.7 mg, the “Decrease of serum total cholesterol concentration” value [5] is reported as roughly 49% and the “Decrease of serum triglyceride concentration” value [5] is reported as roughly 68%. It also gave a Total cholesterol [5] of 97.9 ± 3.4 mg/dL and a Triglyceride [5] of 82.0 ± 6.7 mg/dL.

In the case of `CC(C)CCC[C@@H](C)[C@H]1CC[C@H]2[C@@H]3C[C@@H](Br)C4=CC(=O)CC[C@]4(C)[C@H]3CC[C@]12C` [6 β-Bromo-4-cholesten-3-one, 6β-bromo-4-cholesten-3-one], the Body weight gain [2] is reported as 48%, the Intraperitoneal fat [2] is reported as 62% and the Serum cholesterol ([3]; CDF1 mice) is reported as 98%. It also gave a Serum neutral fats ([3]; CDF1 mice) of 89%.

`CC(C)CCC[C@@H](C)[C@H]1CC[C@H]2[C@@H]3CC(O)C4=CC(=O)CC[C@]4(C)[C@H]3CC[C@]12C` (some centres unmarked) [6-Hydroxy-4-cholesten-3-one] showed a Body weight gain [2] of 50%, an Intraperitoneal fat [2] of 63% and a Serum metabolite [3, 9] of 0. The Serum cholesterol ([3]; CDF1 mice) was 80% and the Serum neutral fats ([3]; CDF1 mice) was 47%.

For `CC[C@H](CC[C@@H](C)[C@H]1CC[C@H]2[C@@H]3CC(O)C4=CC(=O)CC[C@]4(C)[C@H]3CC[C@]12C)C(C)C` (stereo partly drawn) [6-Hydroxy-4-sitosten-3-one (α:β = 2.6:1), 6-hydroxy-4-sitosten-3-one (α:β=2.6:1)], the “Feed efficiency (change)” value [6] was “remarkable decrease”, the “Suppression of body weight (FIG. 3)” value [6] was “potent suppressing effects” and the “Feed efficiency (body weight gain/feed intake)” value [6] was 0.044. For the same compound, the Intraperitoneal fat [6] was 481.8 ± 51.9 mg, the Body weight gain [6] was 1.82 g/mouse and the “Decrease of intraperitoneal fat” value [6] was 50%. The “Total cholesterol and phospholipid concentrations in plasma” value [7] was “significantly decreased”, the Free fatty acid [7] was 0.77 ± 0.03 mEq/dl and the HDL-cholesterol [7] was 45.0 ± 5.8 mg/dL. For the same compound, the Phospholipid [7] was 211.9 ± 5.1 mg/dL, the Total cholesterol [7] was 133.3 ± 5.7 mg/dL and the Triglyceride [7] was 76.5 ± 5.2 mg/dL.

With `CC[C@H](CC[C@@H](C)[C@H]1CC[C@H]2[C@@H]3C[C@H](O)C4=CC(=O)CC[C@]4(C)[C@H]3CC[C@]12C)C(C)C` [6α-Hydroxy-4-sitosten-3-one, 6α-hydroxy-4-sitosten-3-one] the “Feed efficiency (change)” value [6] was “remarkable decrease”, the “Suppression of body weight (FIG. 3)” value [6] was “potent suppressing effects” and the “Feed efficiency (body weight gain/feed intake)” value [6] was 0.022. The Intraperitoneal fat [6] was 369.8 ± 22.5 mg, the Body weight gain [6] was 0.86 g/mouse and the “Decrease of intraperitoneal fat” value [6] was 60%. For the same compound, the “Total cholesterol and phospholipid concentrations in plasma” value [7] was “significantly decreased”, the Free fatty acid [7] was 0.69 ± 0.04 mEq/dl and the HDL-cholesterol [7] was 36.7 ± 4.7 mg/dL. It also gave a Phospholipid [7] of 209.6 ± 7.8 mg/dL, a Total cholesterol [7] of 142.5 ± 5.1 mg/dL and a Triglyceride [7] of 66.8 ± 3.5 mg/dL.

With `CC(C)CCC[C@@H](C)[C@H]1CC[C@H]2[C@@H]3C=CC4=CC(=O)CC[C@]4(C)[C@H]3CC[C@]12C` [Colesta-4,6-dien-3-one] the Body weight gain [2] was 59%, the Intraperitoneal fat [2] was 69% and the Serum cholesterol ([3]; CDF1 mice) was 63%. For the same compound, the Serum neutral fats ([3]; CDF1 mice) was 60%.
